Assay results published in PMC9081267 (Nature microbiology, 2022).

Target: T1, bovine pancreatic trypsin (Bos taurus, UniProt P00760)
T1 sequence (P00760 24-246): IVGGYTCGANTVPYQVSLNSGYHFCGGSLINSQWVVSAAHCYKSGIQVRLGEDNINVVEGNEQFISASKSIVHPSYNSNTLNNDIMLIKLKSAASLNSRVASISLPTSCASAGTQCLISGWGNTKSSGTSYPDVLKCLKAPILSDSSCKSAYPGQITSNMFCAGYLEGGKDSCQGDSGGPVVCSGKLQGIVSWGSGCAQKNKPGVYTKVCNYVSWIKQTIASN
Experiment: fluorogenic AMC substrate hydrolysis, kinetic read, non-linear regression
Type: biochemical

| IC50 [µM] | SMILES |
| --- | --- |
| 3.48 | C=CC1=C(C)/C(=C/c2[nH]c(Cc3[nH]c(/C=C4\NC(=O)C(C)=C4C=C)c(C)c3CCC(=O)O)c(CCC(=O)O)c2C)NC1=O [Unconjugated Bilirubin] |
| 4.83 | CCC1=C(C)C(Cc2[nH]c(Cc3[nH]c(CC4NC(=O)C(C)=C4CC)c(C)c3CCC(=O)O)c(CCC(=O)O)c2C)NC1=O (stereo not shown) [Urobilinogen] |
| 3.86 | CCC1=C(C)/C(=C/c2[nH]c(Cc3[nH]c(/C=C4\NC(=O)C(C)=C4CC)c(C)c3CCC(=O)O)c(CCC(=O)O)c2C)NC1=O [Mesobilirubin] |
| 12.7 | C=CC1=C(C)/C(=C/C2=NC(=C\c3[nH]c(/C=C4\NC(=O)C(C)=C4C=C)c(C)c3CCC(=O)O)/C(CCC(=O)O)=C2C)NC1=O [Biliverdin] |
